Assay results reported in ChEMBL document CHEMBL5385959, “Trifluoroacetic acid-mediated synthesis of xanthene constructs and their extensive anti-tuberculosis evaluation” (RSC Med Chem, 2024).
In brackets after ≈: the same amount, converted by molar mass. Activity calls are given as the source filed them. The calls are words filed in the database; no cut-off is given here.

Assays:
Bacillus subtilis = assay: Antibacterial activity against Bacillus subtilis assessed as reduction in bacterial growth incubated for 24 hrs by broth dilution method; type: functional
Pseudomonas aeruginosa = assay: Antibacterial activity against Pseudomonas aeruginosa assessed as reduction in bacterial growth incubated for 24 hrs by broth dilution method; type: functional
[1] = system: Mycobacterium tuberculosis; assay: Antibacterial activity against Mycobacterium tuberculosis H37Ra assessed as reduction in bacterial growth incubated for 14 days by CLSI protocol based method; type: functional; settings: 336 h, time 14 day
Escherichia coli = assay: Antibacterial activity against Escherichia coli assessed as reduction in bacterial growth incubated for 24 hrs by broth dilution method; type: functional
[2] = system: Mycobacterium tuberculosis; assay: Antibacterial activity against Mycobacterium tuberculosis H37Rv assessed as reduction in bacterial growth incubated for 14 days by CLSI protocol based method; type: functional; settings: 336 h, time 14 day
[3] = system: Mycobacterium tuberculosis; assay: Antibacterial activity against Mycobacterium tuberculosis H37Rv assessed as reduction in bacterial growth by broth microdilution method; type: functional
[4] = system: Mycobacterium tuberculosis; assay: Bactericidal activity Mycobacterium tuberculosis H37Rv assessed as log reduction in CFU incubated for 2 days by time kill assay; type: functional; settings: time 2 day
[5] = system: Mycobacterium tuberculosis; assay: Bactericidal activity Mycobacterium tuberculosis H37Rv assessed as reduction in bacterial growth incubated for 2 days by time kill assay; type: functional; settings: 48 h, time 2 day
[6] = system: Mycobacterium tuberculosis; assay: Antibacterial activity against GFP-tagged Mycobacterium tuberculosis H37Rv assessed as reduction in GFP expression at half times MIC incubated for 7 days by confocal microscopic analysis; type: functional, organism-based; settings: time 7.0 day
HEK293 = assay: Cytotoxicity against HEK293 cells assessed as reduction in cell viability at 100 uM incubated for 48 hrs by MTT assay; type: toxicity, cell-based; settings: human, hek293, 48 h
[7] = system: Mycobacterium tuberculosis; assay: Synergistic antibacterial activity against Mycobacterium tuberculosis H37Rv assessed as ethambutol MIC by broth microdilution method; type: functional
[8] = system: Mycobacterium tuberculosis; assay: Bactericidal activity Mycobacterium tuberculosis H37Rv by time kill assay; type: functional, organism-based; settings: time 16.0 day
[9] = system: Mycobacterium tuberculosis; assay: Bactericidal activity Mycobacterium tuberculosis H37Rv assessed as log reduction in CFU at 16 times MIC incubated for 2 to 6 days by time kill assay; type: functional; settings: time 2-6 day
[10] = system: Mycobacterium tuberculosis; assay: Bactericidal activity Mycobacterium tuberculosis H37Rv assessed as log reduction in CFU at 16 times MIC incubated for 8 days by time kill assay; type: functional; settings: time 8 day
[11] = Cytotoxicity against mouse RAW 264 cells assessed as reduction in cell viability at 150 uM incubated for 48 hrs by MTT assay; type: functional
[12] = system: Mycobacterium tuberculosis; assay: Synergistic antibacterial activity against Mycobacterium tuberculosis H37Rv assessed as reduction in microbial growth in presence of isoniazid by broth microdilution method; type: functional
[13] = system: Mycobacterium tuberculosis; assay: Synergistic antibacterial activity against Mycobacterium tuberculosis H37Rv assessed as reduction in microbial growth in presence of ethambutol by broth microdilution method; type: functional
[14] = system: Mycobacterium tuberculosis; assay: Synergistic antibacterial activity against Mycobacterium tuberculosis H37Rv assessed as isoniazid MIC by broth microdilution method; type: functional
[15] = system: Mycobacterium tuberculosis; assay: Bactericidal activity Mycobacterium tuberculosis assessed as reduction in bacterial growth incubated for 28 days by broth microdilution method; type: functional; settings: 672 h, time 28 day
A549 = assay: Cytotoxicity against human A549 cells assessed as reduction in cell viability at 200 uM incubated for 48 hrs by MTT assay; type: functional
[16] = system: Mycobacterium tuberculosis; assay: Synergistic antibacterial activity against Mycobacterium tuberculosis H37Rv assessed as reduction in microbial growth in presence of rifampicin by broth microdilution method; type: functional
[17] = system: Mycobacterium tuberculosis; assay: Synergistic antibacterial activity against Mycobacterium tuberculosis H37Rv assessed as rifampicin MIC by broth microdilution method; type: functional
[18] = system: Mycobacterium tuberculosis; assay: Bactericidal activity Mycobacterium tuberculosis H37Rv assessed as log reduction in CFU at 2 times MIC incubated for 5 to 10 days by time kill assay; type: functional, organism-based; settings: time 5-10 day
[19] = system: Mycobacterium tuberculosis; assay: Bactericidal activity Mycobacterium tuberculosis H37Rv incubated for 2 days by time kill assay; type: functional, organism-based; settings: time 2.0 day
[20] = system: Mycobacterium tuberculosis; assay: Synergistic antibacterial activity against Mycobacterium tuberculosis H37Rv assessed as log reduction in CFU measured for 2 days in presence of isoniazid by time kill assay; type: functional; settings: time 2 day
[21] = system: Mycobacterium tuberculosis; assay: Synergistic antibacterial activity against Mycobacterium tuberculosis H37Rv assessed as log reduction in CFU measured for 4 days in presence of isoniazid by time kill assay; type: functional; settings: time 4 day
[22] = system: Mycobacterium tuberculosis; assay: Bactericidal activity Mycobacterium tuberculosis H37Rv assessed as log reduction in CFU at 2 times MIC incubated for 2 days by time kill assay; type: functional; settings: time 2 day
[23] = system: Mycobacterium tuberculosis; assay: Bactericidal activity Mycobacterium tuberculosis H37Rv incubated for 15 days by time kill assay; type: functional, organism-based; settings: time 15.0 day
[24] = system: Mycobacterium tuberculosis; assay: Bactericidal activity Mycobacterium tuberculosis H37Rv at 4 times MIC incubated for 7 days by time kill assay; type: functional, organism-based; settings: time 7.0 day

For `Cc1cccc(C2C3=C(CCCC3=O)OC3=C2C(=O)CCC3)c1`, the MIC (Bacillus subtilis) was over 128 µg/mL, the MIC (Pseudomonas aeruginosa) was over 128 µg/mL and the MIC [1] was 64 µg/mL (≈ 208 µM). The MIC (Escherichia coli) was over 128 µg/mL and the MIC [2] was 64 µg/mL (≈ 208 µM).

Work on `O=C1CCCC2=C1C(c1cccc(Br)c1)C1=C(CCCC1=O)O2` yielded an MIC (Bacillus subtilis) of over 128 µg/mL, an MIC (Pseudomonas aeruginosa) of over 128 µg/mL and an MIC [1] of 64 µg/mL (≈ 171 µM). For the same compound, the MIC (Escherichia coli) was over 128 µg/mL and the MIC [2] was 64 µg/mL (≈ 171 µM).

For `COc1ccc(OC)c(C2C3=C(CCCC3=O)OC3=C2C(=O)CCC3)c1`, the MIC (Bacillus subtilis) was over 128 µg/mL, the MIC (Pseudomonas aeruginosa) was over 128 µg/mL and the MIC [1] was 64 µg/mL (≈ 181 µM). For the same compound, the MIC (Escherichia coli) was over 128 µg/mL and the MIC [2] was 64 µg/mL (≈ 181 µM).

With `COc1ccc(C2C3=C(CCCC3=O)OC3=C2C(=O)CCC3)cc1` the MIC (Bacillus subtilis) was over 128 µg/mL, the MIC (Pseudomonas aeruginosa) was over 128 µg/mL and the MIC [1] was 16 µg/mL (≈ 49.3 µM). It also gave an MIC (Escherichia coli) of over 128 µg/mL and an MIC [2] of 16 µg/mL (≈ 49.3 µM).

`CC1(C)CC(=O)C2=C(C1)OC1=C(C(=O)CC(C)(C)C1)C2c1cccc(Br)c1` showed an MIC (Bacillus subtilis) of over 128 µg/mL, an MIC (Pseudomonas aeruginosa) of over 128 µg/mL and an MIC [1] of 64 µg/mL (≈ 149 µM). It also gave an MIC (Escherichia coli) of over 128 µg/mL and an MIC [2] of 64 µg/mL (≈ 149 µM).

With `CC1(C)CC(=O)C2=C(C1)OC1=C(C(=O)CC(C)(C)C1)C2c1ccc(C#N)cc1` the MIC (Bacillus subtilis) was over 128 µg/mL, the MIC (Pseudomonas aeruginosa) was over 128 µg/mL and the MIC [1] was 64 µg/mL (≈ 170 µM). The MIC (Escherichia coli) was over 128 µg/mL and the MIC [2] was 64 µg/mL (≈ 170 µM).

With `CO[C@H]1/C=C/O[C@@]2(C)Oc3c(C)c(O)c4c(O)c(c(/C=N/N5CCN(C)CC5)c(O)c4c3C2=O)NC(=O)/C(C)=C\C=C\[C@H](C)[C@H](O)[C@@H](C)[C@@H](O)[C@@H](C)[C@H](OC(C)=O)[C@@H]1C` [RIFAMPIN] the MIC [3] was 8 µg/mL (≈ 9.72 µM).

`O=C1CCCC2=C1C(c1ccc([N+](=O)[O-])cc1[N+](=O)[O-])C1=C(CCCC1=O)O2` showed an MIC (Bacillus subtilis) of over 128 µg/mL, an MIC (Pseudomonas aeruginosa) of over 128 µg/mL and an MIC [1] of 64 µg/mL (≈ 167 µM). The MIC (Escherichia coli) was over 128 µg/mL and the MIC [2] was 64 µg/mL (≈ 167 µM).

With `C[C@H]1COc2c(N3CCN(C)CC3)c(F)cc3c(=O)c(C(=O)O)cn1c23` [LEVOFLOXACIN ANHYDROUS] the MIC [1] was 0.039 µg/mL (≈ 0.108 µM) and the MIC [2] was 2.5 µg/mL (≈ 6.92 µM).

Work on `COc1cccc(C2C3=C(CCCC3=O)OC3=C2C(=O)CCC3)c1` yielded an MIC (Bacillus subtilis) of over 128 µg/mL, an Activity [4] of over 2 log10CFU and an MIC [5] of 8 µg/mL (≈ 24.7 µM). For the same compound, the Activity [6] was “Active”, the Activity (HEK293) was over 75% and the MIC [7] was 0.312 µg/mL. For the same compound, the Activity [8] was “Dose-Dependent Effect”, the Activity [9] was 2 log10CFU and the MIC (Pseudomonas aeruginosa) was over 128 µg/mL. For the same compound, the Activity [10] was 5 log10CFU, the Activity [11] was over 75% and the MIC [12] was 0.25 µg/mL. It also gave an MIC [1] of 8 µg/mL (≈ 24.7 µM), an MIC [13] of 0.25 µg/mL and an MIC [14] of 0.078 µg/mL. The MIC [3] was 8 µg/mL (≈ 24.7 µM), the MBC [15] was 8 µg/mL (≈ 24.7 µM) and the Activity (A549) was over 75%. The MIC (Escherichia coli) was over 128 µg/mL, the MIC [16] was 0.5 µg/mL and the MIC [2] was 8 µg/mL (≈ 24.7 µM). The MIC [17] was 0.009 µg/mL.

In the case of `CC1(C)CC(=O)C2=C(C1)OC1=C(C(=O)CC(C)(C)C1)C2c1cccc(Cl)c1`, the MIC (Bacillus subtilis) is reported as over 128 µg/mL, the MIC (Pseudomonas aeruginosa) is reported as over 128 µg/mL and the MIC [1] is reported as 64 µg/mL (≈ 166 µM). The MIC (Escherichia coli) was over 128 µg/mL and the MIC [2] was 64 µg/mL (≈ 166 µM).

In the case of `NNC(=O)c1ccncc1` [ISONIAZID], the Activity [6] is reported as “Active”, the MIC [1] is reported as 0.019 µg/mL (≈ 0.139 µM) and the MIC [3] is reported as 8 µg/mL (≈ 58.3 µM). For the same compound, the MIC [2] was 0.625 µg/mL (≈ 4.56 µM).

Work on `O=C1CCCC2=C1C(c1cc(O)ccc1O)C1=C(CCCC1=O)O2` yielded an MIC (Bacillus subtilis) of over 128 µg/mL, an MIC (Pseudomonas aeruginosa) of over 128 µg/mL and an MIC [1] of 64 µg/mL (≈ 196 µM). The MIC (Escherichia coli) was over 128 µg/mL and the MIC [2] was 64 µg/mL (≈ 196 µM).

In the case of `CC1(C)CC(=O)C2=C(C1)OC1=C(C(=O)CC(C)(C)C1)C2c1ccccc1`, the MIC (Bacillus subtilis) is reported as over 128 µg/mL, the MIC [5] is reported as 8 µg/mL (≈ 22.8 µM) and the Activity [18] is reported as “Active”. The Activity [6] was “Active”, the Activity (HEK293) was over 75% and the MIC [7] was 0.312 µg/mL. For the same compound, the Activity [19] was “Active”, the MIC (Pseudomonas aeruginosa) was over 128 µg/mL and the Activity [11] was over 75%. For the same compound, the MIC [12] was 0.078 µg/mL, the MIC [1] was 8 µg/mL (≈ 22.8 µM) and the MIC [13] was 0.25 µg/mL. For the same compound, the MIC [14] was 0.078 µg/mL, the Activity [20] was 2 log10CFU and the MIC [3] was 8 µg/mL (≈ 22.8 µM). For the same compound, the Activity [21] was 1 log10CFU, the MBC [15] was 8 µg/mL (≈ 22.8 µM) and the Activity (A549) was over 75%. For the same compound, the MIC (Escherichia coli) was over 128 µg/mL, the Activity [22] was 3 log10CFU and the MIC [16] was 0.009 µg/mL. The Activity [23] was “inactive”, the MIC [2] was 8 µg/mL (≈ 22.8 µM) and the MIC [17] was 0.009 µg/mL. The Activity [24] was “Active”.

Compound `CC1(C)CC(=O)C2=C(C1)OC(N)=C(C#N)C2c1cccc(O)c1` (stereo unspecified) has an MIC [2] of over 64 µg/mL.

For `COc1ccccc1C1C2=C(CCCC2=O)OC2=C1C(=O)CCC2`, the MIC (Bacillus subtilis) was over 128 µg/mL, the MIC (Pseudomonas aeruginosa) was over 128 µg/mL and the MIC [1] was 64 µg/mL (≈ 197 µM). For the same compound, the MIC (Escherichia coli) was over 128 µg/mL and the MIC [2] was 64 µg/mL (≈ 197 µM).

`CC1(C)CC(=O)C2=C(C1)OC(N)=C(C#N)C2c1ccc(O)cc1` (stereo unspecified) gave an MIC [2] of over 64 µg/mL.
